Assay results: publication PMC3856494, “Radiofluorination and biological evaluation of N-aryl-oxadiazolyl-propionamides as potential radioligands for PET imaging of cannabinoid CB2 receptors” (Organic and Medicinal Chemistry Letters, 2013)

Tests used:
CB2R = CB2R (Mus musculus, UniProt P47936); design: species or system female CD1 mice; details: female, CD1, mouse, in vivo
Description: (§1) Female CD1 mice (10 to 12 weeks old, 20 to 25 g) received an injection of 300 to 400 kBq of [^18F]1 or [^18F]2 with specific activities of >450 GBq/μmol in 200 μL of 0.9% NaCl/10% EtOH into the tail vein. The animals were anesthetized (CO2/O2 mixture) for blood and urine sampling and euthanized by luxation of the cervical spine at 5, 30, and 60 min after injection (p.i.) (n = 2 to 5 per time). The organs of interest were removed and weighed, and the activities were measured by γ counting using a calibrated γ counter Wallac Wizard 1470 (Perkin Elmer Inc., Waltham, MA, USA). The percentage of injected dose per gram of wet tissue (% ID/g wet weight) was calculated.
(3 mg/kg i.p. in 0.9% saline, 10 min before the injection of the radiotracer) at 60 min p.i. (n = 2 to 5). The unpaired two-tailed t test was used to compare the results between the groups. We considered differences to be significant at a p value <0.05.

[1] = In vitro radiochemical stability; assay type: physicochemical; details: all selected media, 40°C, up to 90 min
Description: In vitro radiochemical stabilities of [^18F]1 and [^18F]2 were investigated in 0.9% NaCl solution, Dulbecco’s phosphate buffer, 0.01 M Tris–HCl (pH 7.4 at 21°C), and EtOH at 40°C for 90 min. Samples were taken at 15, 30, 60, and 90 min after incubation and analyzed by radio-TLC and radio-HPLC.

[2] = Ex vivo metabolite studies (radio-HPLC of plasma and brain extracts); assay type: in vivo, CD1 mice; details: mice
Description: [^18F]1 and [^18F]2 (100 to 150 MBq, 250 to 450 GBq/μmol in 150 μL NaCl 0.9%/10% EtOH) were injected via the tail vein in CD1 male mice (10 to 12 weeks old, 20 to 25 g). Blood and urine samples were obtained at 30 and 60 min p.i. (n = 3 per time point). Twofold extractions of plasma and brain samples (n = 3) were performed using ice-cold MeCN according to the standard protocol established in our group (see [47, 48]). Briefly, plasma samples were obtained by centrifugation of the blood at 4,000×g at 4°C for 10 min, and brain samples were homogenized in ice-cold 50 mM Tris–HCl (pH = 7.4). The samples were vortexed, incubated on ice, and centrifuged at 10,000×g for 3 min. Supernatants were collected, and the precipitates were re-dissolved in ice-cold MeCN for the second extraction. The supernatants from the two extractions were combined, concentrated under a gentle argon stream at 65°C, and analyzed by radio-TLC and gradient analytical HPLC (see ‘Radiochemistry’ section). Aliquots from each extraction supernatant and the precipitates were also taken and quantified by γ counting (Wallac Wizard 1470, Perkin Elmer Inc., Waltham, MA, USA) along with the respective aliquots of intact plasma samples and brain homogenates. A moderate recovery of radioactivity was obtained from plasma samples and brain homogenates (60% to 70%). Radiometabolites of [^18F]17 in the plasma, spleen, and brain were assessed at 30 and 60 min p.i.

[3] = Ex vivo biodistribution (organ distribution) in mice; details: i.v. 300 to 400 kBq, female CD1 mice
Description: as §1

Chain of CB2R (P47936 whole entry): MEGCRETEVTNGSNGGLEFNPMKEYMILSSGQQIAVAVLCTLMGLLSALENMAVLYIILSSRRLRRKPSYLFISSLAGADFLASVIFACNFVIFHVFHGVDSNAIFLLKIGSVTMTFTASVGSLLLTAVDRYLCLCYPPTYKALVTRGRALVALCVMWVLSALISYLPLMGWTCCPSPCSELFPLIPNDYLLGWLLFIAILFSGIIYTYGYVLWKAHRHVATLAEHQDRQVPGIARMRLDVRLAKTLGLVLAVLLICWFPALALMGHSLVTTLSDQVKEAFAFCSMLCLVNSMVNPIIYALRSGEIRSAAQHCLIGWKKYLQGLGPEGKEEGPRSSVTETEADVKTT

Compound: CCn1c2ccccc2c2cc(NC(=O)CCc3nc(-c4ccc([18F])cc4Br)no3)ccc21 [[^18F]2]
- Radioactivity uptake, Adrenals, Blocking 60 min (CB2R; 3 mg/kg, 1 h): 3.34 ± 0.15 % ID/g
- Radioactivity uptake, Bladder, Blocking 60 min (CB2R; 3 mg/kg, 1 h): 1.77 ± 0.16 % ID/g
- Radioactivity uptake, Blood, Blocking 60 min (CB2R; 3 mg/kg, 1 h): 3.40 ± 0.21 % ID/g
- Radioactivity uptake, Brain, Blocking 60 min (CB2R; 3 mg/kg, 1 h): 0.28 ± 0.03 % ID/g
- Radioactivity uptake, Femur, Blocking 60 min (CB2R; 3 mg/kg, 1 h): 0.61 ± 0.09 % ID/g
- Radioactivity uptake, Gonads, Blocking 60 min (CB2R; 3 mg/kg, 1 h): 1.97 ± 0.39 % ID/g
- Radioactivity uptake, Heart, Blocking 60 min (CB2R; 3 mg/kg, 1 h): 1.53 ± 0.13 % ID/g
- Radioactivity uptake, Kidney, Blocking 60 min (CB2R; 3 mg/kg, 1 h): 4.91 ± 1.51 % ID/g
- Radioactivity uptake, Large intestine, Blocking 60 min (CB2R; 3 mg/kg, 1 h): 1.78 ± 0.23 % ID/g
- Radioactivity uptake, Liver, Blocking 60 min (CB2R; 3 mg/kg, 1 h): 10.51 ± 1.10 % ID/g
- Radioactivity uptake, Lung, Blocking 60 min (CB2R; 3 mg/kg, 1 h): 2.31 ± 0.19 % ID/g
- Radioactivity uptake, Muscle, Blocking 60 min (CB2R; 3 mg/kg, 1 h): 0.70 ± 0.06 % ID/g
- Radioactivity uptake, Pancreas, Blocking 60 min (CB2R; 3 mg/kg, 1 h): 1.02 ± 0.11 % ID/g
- Radioactivity uptake, Plasma, Blocking 60 min (CB2R; 3 mg/kg, 1 h): 5.78 ± 0.07 % ID/g
- Radioactivity uptake, Small intestine, Blocking 60 min (CB2R; 3 mg/kg, 1 h): 29.64 ± 5.10 % ID/g
- Radioactivity uptake, Spleen, Blocking 60 min (CB2R; 3 mg/kg, 1 h): 0.74 ± 0.10 % ID/g
- Radioactivity uptake, Stomach, Blocking 60 min (CB2R; 3 mg/kg, 1 h): 3.24 ± 2.10 % ID/g
- Radioactivity uptake, Thymus, Blocking 60 min (CB2R; 3 mg/kg, 1 h): 1.77 ± 0.14 % ID/g
- % control, Adrenals (CB2R; 60 min): 137 % control
- % control, Bladder (CB2R; 60 min): 122 % control
- % control, Blood (CB2R; 60 min): 136 % control
- % control, Brain (CB2R; 60 min): 108 % control
- % control, Femur (CB2R; 60 min): 106 % control
- % control, Gonads (CB2R; 60 min): 86 % control
- % control, Heart (CB2R; 60 min): 106 % control
- % control, Kidney (CB2R; 60 min): 124 % control
- % control, L. intestine (CB2R; 60 min): 96 % control
- % control, Liver (CB2R; 60 min): 168 % control
- % control, Lung (CB2R; 60 min): 92 % control
- % control, Muscle (CB2R; 60 min): 99 % control
- % control, Pancreas (CB2R; 60 min): 125 % control
- % control, Plasma (CB2R; 60 min): 111 % control
- % control, S. intestine (CB2R; 60 min): 109 % control
- % control, Spleen (CB2R; 60 min): 110 % control
- % control, Stomach (CB2R; 60 min): 146 % control
- % control, Thymus (CB2R; 60 min): 171 % control
- intact tracer [1]: ≥ 98%
- Percentage of total activity in brain samples, 30 min p.i. ([2]; brain homogenate extract, 30 min p.i. of [18F]1 or [18F]2, radio-HPLC): 88%
- Percentage of total activity in brain samples, 60 min p.i. ([2]; brain homogenate extract, 60 min p.i. of [18F]1 or [18F]2, radio-HPLC): 43%
- Relative percentage of intact tracer and radiometabolites, Plasma 30 min p.i. ([2]; plasma, 30 min p.i. of [18F]1 or [18F]2, radio-HPLC): 2%
- Relative percentage of intact tracer and radiometabolites, Plasma 60 min p.i. ([2]; plasma, 60 min p.i. of [18F]1 or [18F]2, radio-HPLC): 2%
- Radioactivity uptake, Adrenals, Control 5 min [3]: 7.67 ± 2.18 % ID/g
- Radioactivity uptake, Adrenals, Control 30 min [3]: 5.38 ± 0.61 % ID/g
- Radioactivity uptake, Adrenals, Control 60 min [3]: 2.44 ± 0.72 % ID/g
- Radioactivity uptake, Bladder, Control 5 min [3]: 1.01 ± 0.29 % ID/g
- Radioactivity uptake, Bladder, Control 30 min [3]: 2.02 ± 0.39 % ID/g
- Radioactivity uptake, Bladder, Control 60 min [3]: 1.45 ± 0.57 % ID/g
- Radioactivity uptake, Blood, Control 5 min [3]: 2.29 ± 0.48 % ID/g
- Radioactivity uptake, Blood, Control 30 min [3]: 3.42 ± 0.39 % ID/g
- Radioactivity uptake, Blood, Control 60 min [3]: 2.50 ± 0.42 % ID/g
- Radioactivity uptake, Brain, Control 5 min [3]: 0.62 ± 0.22 % ID/g
- Radioactivity uptake, Brain, Control 30 min [3]: 0.86 ± 0.34 % ID/g
- Radioactivity uptake, Brain, Control 60 min [3]: 0.26 ± 0.07 % ID/g
- Radioactivity uptake, Femur, Control 5 min [3]: 1.63 ± 0.93 % ID/g
- Radioactivity uptake, Femur, Control 30 min [3]: 1.10 ± 0.03 % ID/g
- Radioactivity uptake, Femur, Control 60 min [3]: 0.58 ± 0.11 % ID/g
- Radioactivity uptake, Gonads, Control 5 min [3]: 1.14 ± 0.32 % ID/g
- Radioactivity uptake, Gonads, Control 30 min [3]: 2.08 ± 0.03 % ID/g
- Radioactivity uptake, Gonads, Control 60 min [3]: 2.29 ± 0.57 % ID/g
- Radioactivity uptake, Heart, Control 5 min [3]: 3.42 ± 0.57 % ID/g
- Radioactivity uptake, Heart, Control 30 min [3]: 2.32 ± 0.24 % ID/g
- Radioactivity uptake, Heart, Control 60 min [3]: 1.45 ± 0.20 % ID/g
- Radioactivity uptake, Kidney, Control 5 min [3]: 5.86 ± 0.96 % ID/g
- Radioactivity uptake, Kidney, Control 30 min [3]: 5.90 ± 0.15 % ID/g
- Radioactivity uptake, Kidney, Control 60 min [3]: 3.96 ± 1.25 % ID/g
- Radioactivity uptake, Large intestine, Control 5 min [3]: 0.46 ± 0.06 % ID/g
- Radioactivity uptake, Large intestine, Control 30 min [3]: 1.25 ± 0.30 % ID/g
- Radioactivity uptake, Large intestine, Control 60 min [3]: 1.86 ± 0.36 % ID/g
- Radioactivity uptake, Liver, Control 5 min [3]: 31.31 ± 9.91 % ID/g
- Radioactivity uptake, Liver, Control 30 min [3]: 8.84 ± 0.83 % ID/g
- Radioactivity uptake, Liver, Control 60 min [3]: 6.27 ± 0.68 % ID/g
- Radioactivity uptake, Lung, Control 5 min [3]: 4.62 ± 0.21 % ID/g
- Radioactivity uptake, Lung, Control 30 min [3]: 3.36 ± 0.02 % ID/g
- Radioactivity uptake, Lung, Control 60 min [3]: 2.52 ± 0.60 % ID/g
- Radioactivity uptake, Muscle, Control 5 min [3]: 1.00 ± 0.30 % ID/g
- Radioactivity uptake, Muscle, Control 30 min [3]: 0.92 ± 0.15 % ID/g
- Radioactivity uptake, Muscle, Control 60 min [3]: 0.70 ± 0.27 % ID/g
- Radioactivity uptake, Pancreas, Control 5 min [3]: 2.04 ± 0.59 % ID/g
- Radioactivity uptake, Pancreas, Control 30 min [3]: 1.71 ± 0.15 % ID/g
- Radioactivity uptake, Pancreas, Control 60 min [3]: 0.82 ± 0.21 % ID/g
- Radioactivity uptake, Plasma, Control 5 min [3]: 3.87 ± 0.90 % ID/g
- Radioactivity uptake, Plasma, Control 30 min [3]: 6.82 ± 1.19 % ID/g
- Radioactivity uptake, Plasma, Control 60 min [3]: 5.22 ± 0.73 % ID/g
- Radioactivity uptake, Small intestine, Control 5 min [3]: 3.86 ± 2.64 % ID/g
- Radioactivity uptake, Small intestine, Control 30 min [3]: 20.78 ± 3.28 % ID/g
- Radioactivity uptake, Small intestine, Control 60 min [3]: 27.31 ± 2.44 % ID/g
- Radioactivity uptake, Spleen, Control 5 min [3]: 10.42 ± 7.67 % ID/g
- Radioactivity uptake, Spleen, Control 30 min [3]: 1.34 ± 0.10 % ID/g
- Radioactivity uptake, Spleen, Control 60 min [3]: 0.68 ± 0.11 % ID/g
- Radioactivity uptake, Stomach, Control 5 min [3]: 1.57 ± 1.18 % ID/g
- Radioactivity uptake, Stomach, Control 30 min [3]: 2.09 ± 0.81 % ID/g
- Radioactivity uptake, Stomach, Control 60 min [3]: 2.21 ± 0.43 % ID/g
- Radioactivity uptake, Thymus, Control 5 min [3]: 2.30 ± 1.06 % ID/g
- Radioactivity uptake, Thymus, Control 30 min [3]: 1.96 ± 0.22 % ID/g
- Radioactivity uptake, Thymus, Control 60 min [3]: 1.04 ± 0.08 % ID/g
